pKi: −log10 of the molar value.

The target of this test is Carbonic anhydrase 9 (Homo sapiens, UniProt Q16790).

Description: Inhibition of CA9 (unknown origin)

As usually defined, the pKi is the negative decadic logarithm of the Ki, by convention in mol/L. Read a low pKi as a large Ki. `NS(=O)(=O)c1ccc2c(c1)CCC2NC(=O)c1c(F)c(F)c(F)c(F)c1F` (stereo unspecified) gave a pKi of 8.49.

(Values after ChEMBL document CHEMBL3102853, “Carbonic anhydrase inhibitors. Synthesis, and molecular structure of novel series N-substituted N'-(2-arylmethylthio-4-chloro-5-methylbenzenesulfonyl)guanidines and their inhibition of human cytosolic isozymes I and II and the transmembrane tumor-associated isozymes IX and XII” (Eur J Med Chem, 2014).)
